Read-outs that look alike come from different tables or passages of the source.
Assays:
hNKCC1a = target: T1, hNKCC1a (Homo sapiens, UniProt P55011); conditions: cited from earlier work
T1 sequence (P55011 1-1212): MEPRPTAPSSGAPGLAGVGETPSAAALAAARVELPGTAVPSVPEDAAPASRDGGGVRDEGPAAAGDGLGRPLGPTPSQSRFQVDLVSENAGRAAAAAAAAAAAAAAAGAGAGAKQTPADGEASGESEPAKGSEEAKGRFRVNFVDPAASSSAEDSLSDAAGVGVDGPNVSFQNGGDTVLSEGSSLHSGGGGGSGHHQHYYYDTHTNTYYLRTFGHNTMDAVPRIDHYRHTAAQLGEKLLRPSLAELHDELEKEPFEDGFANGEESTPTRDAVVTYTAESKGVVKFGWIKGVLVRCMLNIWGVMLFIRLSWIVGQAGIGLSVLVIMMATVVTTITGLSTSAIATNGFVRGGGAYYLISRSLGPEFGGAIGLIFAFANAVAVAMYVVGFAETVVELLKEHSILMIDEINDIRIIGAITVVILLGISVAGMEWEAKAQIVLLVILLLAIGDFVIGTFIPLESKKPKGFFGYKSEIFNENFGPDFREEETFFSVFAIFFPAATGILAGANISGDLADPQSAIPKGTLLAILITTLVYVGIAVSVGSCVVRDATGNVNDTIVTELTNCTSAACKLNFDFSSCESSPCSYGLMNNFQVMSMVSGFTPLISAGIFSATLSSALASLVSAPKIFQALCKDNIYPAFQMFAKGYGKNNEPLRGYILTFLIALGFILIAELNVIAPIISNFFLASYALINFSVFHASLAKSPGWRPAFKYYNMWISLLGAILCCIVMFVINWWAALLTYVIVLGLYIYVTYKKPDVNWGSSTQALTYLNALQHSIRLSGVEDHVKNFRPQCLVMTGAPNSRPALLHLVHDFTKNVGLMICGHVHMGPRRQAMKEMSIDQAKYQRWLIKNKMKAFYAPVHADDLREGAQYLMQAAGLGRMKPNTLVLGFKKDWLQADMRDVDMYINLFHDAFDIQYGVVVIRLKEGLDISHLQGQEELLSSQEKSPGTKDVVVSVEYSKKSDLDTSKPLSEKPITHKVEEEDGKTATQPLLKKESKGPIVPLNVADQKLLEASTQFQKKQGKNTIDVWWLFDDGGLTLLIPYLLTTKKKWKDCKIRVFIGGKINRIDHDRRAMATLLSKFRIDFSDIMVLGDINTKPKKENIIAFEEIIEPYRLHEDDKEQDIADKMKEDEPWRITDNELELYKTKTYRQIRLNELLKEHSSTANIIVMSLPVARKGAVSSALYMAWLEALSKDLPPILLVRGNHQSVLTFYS

hNKCC1b = target: T2, hNKCC1b (Homo sapiens, UniProt P55011); conditions: cited from earlier work
T2 sequence (P55011 1-1196 isoform P55011-3): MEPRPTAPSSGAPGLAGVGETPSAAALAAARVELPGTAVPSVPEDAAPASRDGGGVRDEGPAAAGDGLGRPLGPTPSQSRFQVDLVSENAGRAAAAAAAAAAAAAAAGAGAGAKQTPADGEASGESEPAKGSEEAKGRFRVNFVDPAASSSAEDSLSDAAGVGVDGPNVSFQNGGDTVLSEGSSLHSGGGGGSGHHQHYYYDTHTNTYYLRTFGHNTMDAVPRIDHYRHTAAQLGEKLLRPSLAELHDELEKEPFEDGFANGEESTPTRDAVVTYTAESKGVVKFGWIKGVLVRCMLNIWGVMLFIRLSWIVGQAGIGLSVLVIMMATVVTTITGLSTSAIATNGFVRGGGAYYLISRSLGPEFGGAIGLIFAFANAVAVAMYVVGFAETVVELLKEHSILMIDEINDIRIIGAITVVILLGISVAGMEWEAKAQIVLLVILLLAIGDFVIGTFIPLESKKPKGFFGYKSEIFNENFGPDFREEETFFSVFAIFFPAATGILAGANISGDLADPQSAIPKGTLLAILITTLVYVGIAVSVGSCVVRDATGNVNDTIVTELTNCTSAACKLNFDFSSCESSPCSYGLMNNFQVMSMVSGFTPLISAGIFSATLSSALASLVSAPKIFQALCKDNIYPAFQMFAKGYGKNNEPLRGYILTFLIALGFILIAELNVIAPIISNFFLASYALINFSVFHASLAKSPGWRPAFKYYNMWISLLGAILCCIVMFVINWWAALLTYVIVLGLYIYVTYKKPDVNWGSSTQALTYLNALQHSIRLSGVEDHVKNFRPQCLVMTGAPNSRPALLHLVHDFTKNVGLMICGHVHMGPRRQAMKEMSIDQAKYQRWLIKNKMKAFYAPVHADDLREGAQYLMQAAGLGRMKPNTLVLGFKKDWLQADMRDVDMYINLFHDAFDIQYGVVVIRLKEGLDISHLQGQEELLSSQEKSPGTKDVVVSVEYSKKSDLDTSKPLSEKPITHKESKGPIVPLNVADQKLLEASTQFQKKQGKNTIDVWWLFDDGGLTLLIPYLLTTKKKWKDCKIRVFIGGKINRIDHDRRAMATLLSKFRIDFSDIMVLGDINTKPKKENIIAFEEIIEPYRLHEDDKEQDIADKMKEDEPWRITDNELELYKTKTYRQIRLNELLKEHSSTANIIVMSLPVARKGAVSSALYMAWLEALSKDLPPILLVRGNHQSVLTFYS

NKCC2 = target: T3, NKCC2 (Homo sapiens, UniProt Q13621); conditions: cited from earlier work
T3 sequence (Q13621 1-1099): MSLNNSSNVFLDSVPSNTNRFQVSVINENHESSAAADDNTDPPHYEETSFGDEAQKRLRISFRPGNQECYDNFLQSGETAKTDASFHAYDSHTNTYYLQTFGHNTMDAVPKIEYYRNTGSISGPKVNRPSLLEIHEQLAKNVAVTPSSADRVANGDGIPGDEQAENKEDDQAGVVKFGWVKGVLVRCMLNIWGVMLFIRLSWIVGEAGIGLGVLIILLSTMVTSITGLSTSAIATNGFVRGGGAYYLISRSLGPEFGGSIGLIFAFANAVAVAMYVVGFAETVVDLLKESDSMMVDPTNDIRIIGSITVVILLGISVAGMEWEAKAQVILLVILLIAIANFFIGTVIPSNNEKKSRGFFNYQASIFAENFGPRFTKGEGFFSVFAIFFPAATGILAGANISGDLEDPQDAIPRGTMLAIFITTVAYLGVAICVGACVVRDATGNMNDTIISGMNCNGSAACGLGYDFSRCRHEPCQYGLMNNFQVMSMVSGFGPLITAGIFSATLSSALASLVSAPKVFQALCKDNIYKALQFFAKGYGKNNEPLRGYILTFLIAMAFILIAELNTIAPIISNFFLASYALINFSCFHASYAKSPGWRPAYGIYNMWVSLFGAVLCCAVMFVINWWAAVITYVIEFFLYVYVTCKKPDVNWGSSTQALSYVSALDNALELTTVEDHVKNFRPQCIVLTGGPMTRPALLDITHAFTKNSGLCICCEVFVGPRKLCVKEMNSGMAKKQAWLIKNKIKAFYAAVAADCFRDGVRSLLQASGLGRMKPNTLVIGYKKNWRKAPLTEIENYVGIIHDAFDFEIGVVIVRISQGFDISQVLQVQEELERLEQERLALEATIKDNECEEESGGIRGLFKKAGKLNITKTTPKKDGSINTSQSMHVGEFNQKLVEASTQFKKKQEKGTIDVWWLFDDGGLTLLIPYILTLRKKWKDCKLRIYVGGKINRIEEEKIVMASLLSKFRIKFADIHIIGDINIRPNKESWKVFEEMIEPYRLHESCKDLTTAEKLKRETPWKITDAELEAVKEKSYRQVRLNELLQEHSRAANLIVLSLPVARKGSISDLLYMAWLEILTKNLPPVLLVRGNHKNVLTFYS

[1] = Cross-over trial dapagliflozin / bumetanide: weekly urinary excretion (Table 9); format: in vivo, healthy volunteers; conditions: for Ca^++ / Glucose / K^+ / Mg^++ / Na^+ / Urate: urine, Day 1-7
[2] = in vivo; cited from earlier work
[3] = in vivo; cited from earlier work; remark: listed apart in the source
[4] = during the remainder of the day after the dose, high salt intake; cited from earlier work
[5] = in vivo; cited from earlier work; remark: listed apart in the source
[6] = 1 mg; cited from earlier work
[7] = with spironolactone treatment, 12 patients, p<0.05, cited from earlier work
[8] = Americas group, at four months; cited from earlier work
[9] = cited from earlier work

NS(=O)(=O)c1cc(-c2nnn[nH]2)c(NCc2cccs2)cc1Cl [Azosemide]
IC50 (hNKCC1a): 250 nM
IC50 (hNKCC1b): 210 nM
IC50 (NKCC2): 3100 nM

CCCCNc1cc(C(=O)O)cc(S(N)(=O)=O)c1Oc1ccccc1 [Bumetanide]
greater natriuresis with bumetanide ([1]; given after one week of dapaglifozin therapy): 36%
Ca^++ [1]: 667 ± 54 mg-wk^−1
Glucose [1]: 0.3 ± 0.06 g-wk^−1
K^+ [1]: 454 ± 32 mmol-wk^−1
Mg^++ [1]: 613 ± 48 mg-wk^−1
Na^+ [1]: 669 ± 46 mmol-wk^−1
Urate [1]: 2249 ± 160 mg-wk^−1
IC50 (hNKCC1a): 950 nM
IC50 (hNKCC1b): 840 nM
IC50 (NKCC2): 250 nM

Cc1ccc([C@@H]2O[C@H](CO)[C@@H](O)[C@H](O)[C@H]2O)cc1Cc1ccc(-c2ccc(F)cc2)s1 [Canagliflozin]
Bioavailability [2]: 65%
T1/2 [2]: 10 h
Tmax [2]: 1 to 2 h

CCOc1ccc(Cc2cc([C@@H]3O[C@H](CO)[C@@H](O)[C@H](O)[C@H]3O)ccc2Cl)cc1 [Dapagliflozin]
greater natriuresis with dapagliflozin ([1]; given after one week of bumetanide therapy): 190%
Ca^++ [1]: 597 ± 76 mg-wk^−1
Glucose [1]: 239 ± 20 g-wk^−1
K^+ [1]: 415 ± 24 mmol-wk^−1
Mg^++ [1]: 548 ± 37 mg-wk^−1
Na^+ [1]: 625 ± 15 mmol-wk^−1
Urate [1]: 3382 ± 187 mg-wk^−1
T1/2 [2]: 13 h
Tmax [2]: 1 to 1.5 h

OC[C@H]1O[C@@H](c2ccc(Cl)c(Cc3ccc(O[C@H]4CCOC4)cc3)c2)[C@H](O)[C@@H](O)[C@@H]1O [Empagliflozin]
Bioavailability [2]: 95%
T1/2 [2]: 13 h
Tmax [2]: 1.5 h

COC(=O)[C@@H]1CC2=CC(=O)CC[C@]2(C)[C@@]23O[C@@H]2C[C@@]2(C)[C@@H](CC[C@@]24CCC(=O)O4)[C@H]13 [Eplerenone]
half-life [3]: 4 to 6 h

CCOc1ccc(Cc2cc([C@]34OC[C@](CO)(O3)[C@@H](O)[C@H](O)[C@H]4O)ccc2Cl)cc1 [Ertugliflozin]
Bioavailability [2]: 87%
T1/2 [2]: 12.5 h
Tmax [2]: 2 to 3 h

C=C(CC)C(=O)c1ccc(OCC(=O)O)c(Cl)c1Cl [Ethacrynic acid]
IC50 (NKCC2): 5100 nM

NS(=O)(=O)c1cc(C(=O)O)c(NCc2ccco2)cc1Cl [Furosemide]
IC50 (NKCC2): 5100 nM
reduction of GFR [4]: circa 23%

OC[C@H]1O[C@@H](c2ccc(F)c(Cc3cc4ccccc4s3)c2)[C@H](O)[C@@H](O)[C@@H]1O [Ipragliflozin]
Bioavailability [2]: 92%
T1/2 [2]: 15 h

O=C1CC[C@@]2(O)[C@H]3Cc4ccc(O)c5c4[C@@]2(CCN3CC2CC2)[C@H]1O5 [Naltrexone, 17-(cyclopropylmethyl)-4,5-epoxy-3,14-dihydroxymorphinan-6-one]
fraction metabolized [5]: > 98%

COc1cc2nc(N3CCN(C(=O)c4ccco4)CC3)nc(N)c2cc1OC [Prazosin]
Oral bioavailability [6]: 56.9%

CCOc1ccc(Cc2cc([C@@H]3O[C@H](SC)[C@@H](O)[C@H](O)[C@H]3O)ccc2Cl)cc1 [Sotagliflozin]
Bioavailability [2]: 70%
T1/2 [2]: 2.5 h
Tmax [2]: 1.9 h

CC(=O)S[C@@H]1CC2=CC(=O)CC[C@]2(C)[C@H]2CC[C@@]3(C)[C@@H](CC[C@@]34CCC(=O)O4)[C@H]12 [Spironolactone]
half-life [3]: about 1.5 h
time to steady state concentration [3]: 7 to 10 days
hypoxic index ([7]; vs. 13.6±10.8): 6.7±6.6 events/h
AHI ([7]; vs. 39.8±19.5): 22.0±6.8 events/h
patients discontinuing the study drug due to hyperkalemia [8]: 25.2%

CCc1ccc(Cc2ccc3c(c2)[C@]2(OC3)O[C@H](CO)[C@@H](O)[C@H](O)[C@H]2O)cc1 [Tofogliflozin]
Bioavailability [2]: 98%
T1/2 [2]: 5.5 h
Tmax [2]: 1.1 h

Cc1cccc(Nc2ccncc2S(=O)(=O)NC(=O)NC(C)C)c1 [Torsemide]
IC50 (hNKCC1a): 6200 nM
IC50 (hNKCC1b): 8200 nM
IC50 (NKCC2): 300 nM
Bioavailability ([9]; in vivo): 80-100%
duration of action ([9]; in vivo): 3 to 5 h
plasma half-life ([9]; unchanged in chronic renal failure): 3 to 5 h

C[C@]12CCC(=O)C=C1C=C[C@@H]1[C@@H]2CC[C@@]2(C)[C@H]1CC[C@@]21CCC(=O)O1 [canrenone]
half-life [3]: more than 15 hours
